One data set concerns A-549 cells. The data set is described as follows: Cell death on DSB-3 staining. It is filed as cell-based, human. The note with it: data not shown. How it is done: A549 and A549-SMAC-KO cells were seeded on sterile cover slips in 24-well cell culture plates (75,000 cells/well) and allowed to adhere for 24 h. MitoTracker® (250 nM in DMEM+10% FBS) was added, and plates were incubated in a CO2 incubator for 30 min at 37° C. Cells were washed with PBS and incubated with DSB3 (10 μM in reaction buffer; 40 mM NaCl, 1 mM KPO4, pH 7.4) in a C02 incubator for 2 h. Cells were washed with PBS, fixed with 4% PFA for 20 min at room temperature, washed with PBS, and stained with DAPI for 20 min at room temperature. Cover slips were washed with PBS and mounted with Vectashield, and imaging was done using confocal microscopy (Olympus 1X81).

The test system of another data set is different cell lines. The note with it: cited from earlier work.
In another data set the test system is Ki-67. In words: Ki-67 IHC in si-hSMAC-A treated tumors. Format: in vivo, athymic nude mice. How it is done:
(§1) Treatment was initiated when the average tumor volume in each group reached ˜50 mm^3. Results are presented as the mean tumor volume±SEM. […] Scale bars represent 50, 25 or 15 μm as indicated. […] Results are the means±SEM.
(§2) In order to reduce non-specific binding, sections were incubated in 10% normal goat serum for 2 h, then incubated with primary antibodies (Table 1) overnight at 4° C. […] Sections were washed with water, counterstained with hematoxylin, and mounted with Vectashield mounting medium (Vector Laboratories, Burlingame, CA).

Data set [1] deals with A549 lung cancer tumor xenograft. In words: A549 xenograft tumor growth under si-hSMAC-A. Format: in vivo, athymic nude mice.
Source text: as §1
Male athymic nude mice (6-8 weeks old) were obtained from Envigo and were kept in Ben-Gurion University (Israel) animal facility in temperature-controlled rooms and provided with water and food pellets ad libitum. Lung cancer A549 (3×10^6) cells were implanted subcutaneously on the dorsal flanks. Tumor growth was recorded using digital calipers, and volumes were calculated using formula […] (L=length; W=width). Mice were divided randomly into three groups once the average tumor volume reached ˜80 mm^3, and were treated subcutaneously with si-NT (group 1) or si-hSMAC (group 2-350 nM group 3-700 nM final concentration) mixed with JetPEI reagent three times a week. Mice were sacrificed at the end of experiment, and the tumors were excised and processed for immunohistochemistry or frozen in liquid nitrogen for immunoblotting and RNA isolation. All procedures involving mice were approved by the Institutional Animal Care and Use Committee.

Another data set has as its system SMAC/Diablo. The data set is described as follows: SMAC/Diablo level in si-hSMAC-A treated tumors (immunoblot, IHC). Format: in vivo, athymic nude mice. The note with it: relative to si-NT-TTs. How it is done: as §1, §2
Cells were harvested and washed twice with ice-cold PBS, and the pellets were lysed on ice for 30 min in a lysis buffer (50 mM Tris-HCl, pH 7.5, 150 mM NaCl, 1 mM EDTA, 1.5 mM MgCl2, 10% glycerol, 1% Triton X-100), freshly supplemented with a protease inhibitor cocktail (Calbiochem), incubated on ice for 20 min and centrifuged thereafter (10 min, 12000 g). The protein concentration of the supernatant was determined and […] were stored at −80° C. until used for gel electrophoresis and immunoblotting. Protein samples (10-20 μg) were subjected to SDS-PAGE and immunoblotting, using the selected primary antibodies, followed by incubation with HRP-conjugated secondary antibodies. HRP activity was determined using enhanced chemiluminescent substrate (Pierce Chemical, Rockford, IL). Band intensity was quantified using FUSION-FX (Vilber Lourmat, France).

For data set [2], the system named is A549 lung cancer tumor xenograft. In words: TUNEL staining of si-hSMAC-A treated tumors. Format: in vivo, athymic nude mice. Particulars: data not shown.
Data set [3] concerns total phospholipids (PLs), PC, and PE. The data set is described as follows: PL, PC and PE levels in si-hSMAC-A treated tumors. It is filed as in vivo, athymic nude mice. The note with it: relative to si-NT-TTs.
A further data set deals with A549 cell xenografts. The note with it: tumors injected 3 times a week, final concentration 50 μM.
The next data set deals with A549 lung cancer cell. Format: cell-based, human. The note with it: 24 h. How it is done: (B) Inhibition of PSD activity by the 2F3 (●) or 1C11 (◯) peptide. PSD activity was measured using the DSB-3 method. (C-E) Cell proliferation inhibition following incubation of A549 cells with the indicated mitochondria- or nuclear-targeted peptides for 24 h in a serum-free medium, and cell proliferation was assayed using the SRB method. Results are the means±SEM (n=3). (F) A549 cells were incubated for 90 min with 5 μM of the mitochondria- or nuclear targeted FITC-labelled peptides, immunostained with anti-SMAC antibodies and with DAPI and visualized by confocal microscope for subcellular localization. Arrows indicates nuclear (n=3). Scale bars represent 20
(A) A549 cells were incubated with the indicated concentration of 1C11-HTRA2-derived peptide targeted to the mitochondrion with the targeting sequence added to the N-terminus (N-Ter) or the C-terminus (C-Ter). (B) Mitochondrion targeted 1C11-HTRA2-derived peptide was modified by replacing the three amino acids in the C or the N-terminus of the peptide, or all amino acids in the peptide with the D-confirmation of the amino acid (underlined amino acids)). Following 24 h incubation in a serum-free medium, cell proliferation was assayed using the SRB method. (C) The concentration required for 50% inhibition of cell proliferation (IC50) is presented. Results are the means±SEM (n=3).
A549 (human lung adenocarcinoma epithelial cell), HEK-293T (human embryonic kidney), H1563/CRL-5875 (non-small cell lung cancer adenocarcinoma), H-358 (bronchioalveolar carcinoma), HaCaT (spontaneously transformed aneuploid immortal human skin keratinocyte), and WI-38 (fibroblast-like fetal lung cell) cell lines were purchased from the American Type Culture Collection (ATCC) (Manassas, VA), and were maintained as per ATCC instructions. Cells were maintained in ATCC recommended medium at 37° C. in an incubator with 5% CO2. Cell lines were routinely tested for Mycoplasma contamination. For SMAC overexpression, cells were seeded (200,000 cells/well) on 6-well culture plates and allowed to adhere overnight. These adhered cells were transfected with PVMV3.1-SMAC or empty vector using the JetPRIME transfection reagent (Illkirch, France), according to the manufacturers' instructions. Medium was changed 6 h post transfection, and cells were harvested 48 h post transfection.
Cells were seeded in 96-well cell culture plates (8,000/well) and allowed to grow for 48 h. After washing with PBS, cells were fixed with 10% trichloroacetic acid, and stained with SRB for 20 min. Excess SRB were removed, and cells were washed with 1% acetic acid. SRB extraction was done using 100 mM Tris-base, and absorbance at 510 nm was determined using an Infinite M1000 plate reader (Tecan, Mannedorf, Switzerland).

Square brackets hold non-standard residues; d marks the D form. Ends that are not written are not given here. Peptide text beside a SMILES is read from it. Dmt = Cc1cc(O)cc(C)c1C[C@H](N)C(=O)O; Orn = NCCC[C@H](N)C(=O)O

The text below walks through data of patent US20250051409A1, “MODULATORS OF PHOSPHATIDYLSERlNE DECARBOXYLASE AND USE THEREOF” (THE NATIONAL INSTITUTE FOR BIOTECHNOLOGY IN THE NEGEV LTD., priority 2021, published 2025).

Description for A549 cell xenografts: A549 cells were S.C. inoculated into female nude mice (7×10^6 cells/mouse). Tumors sizes were measured (using a digital caliper) and volumes were calculated. When tumors volumes reached 60-100 mm3 (day 12), the mice were divided into 2 groups and xenografts were untreated (●) or treated with HtrA2/Omi-derived D-amino acid peptide targeted to the mitochondria (D-HTRA2-M, o). The tumors were injected 3 times a week to a final concentration of 50 μM. […] Tumors of A549 cell xenografts were dissected, photographed (B) and weighted (C). […] Results represent the means±SEM (n=8), **P≤0.01, ***P≤0.001.
A549 cells were inoculated subcutaneously into female nude mice (7×10^6 cells/mouse). Tumors sizes were measured (using a digital caliper) and volumes were calculated. When tumors volumes reached 60-100 mm3 (day 12), the mice were divided into 2 groups (control and treatment) and in the treatment group xenografts were treated with HtrA2/Omi-derived D-amino acid peptide (SEQ ID NO:35) targeted to the mitochondria. The tumors were injected 3 times a week to a final concentration of 50 μM or the peptide was administered by intravenous injection 2 times a week to a final concentration of 20 mg/kg. Tumors of A549 cell xenografts were dissected, photographed and weighted.

Take Distyrylbenzene-bis-aldehyde [DSB-3]: in the data set on A-549 cells, the cell death result is “induces no cell death”.
[dR][Dmt][Orn]F [mtCPP-1]: in the data set on different cell lines, the induction of apoptosis result is “did not induce apoptosis” and the “toxicity in cell lines” value is “no toxicity”.
Consider “si-hSMAC-A: Human SMAC/Diablo-specific siRNA, sense SEQ ID NO:33 and anti-sense SEQ ID NO:34 (sense AAGCGGUGUUUCUCAGAATTGTT; antisense AACAAUUCUGAGAAACCCGCTT; chemistry not given here)”, for which the “expression of Ki-67 in treated tumors” value in the data set with Ki-67 was “highly reduced”. The “tumor volume reduction relative to si-NT-treated tumors” value in data set [1] (si-hSMAC-A at 350 nM) is 50%. Also, the “tumor volume reduction relative to si-NT-treated tumors” value in data set [1] (si-hSMAC-A at 700 nM) was found to be 85%. Further, in the data set with SMAC/Diablo, the “decrease of SMAC/Diablo level in treated tumors” value is 75%. Further, in data set [2], the “cell death in treated tumors” value is “No cell death was detected”. In addition, in data set [3], the “decrease of PC in treated tumors” value came to 65%, the “decrease of PLs in treated tumors” value is 50% and the “increase of PE in treated tumors” value is on record as 200%.
Regarding “SEQ ID NO:35: HtrA2/Omi-derived D-amino acid peptide targeted to the mitochondria ([dA][dL][dL][dT][dS]G[dT][dS][dD][dP][dR][dA][dR][dV][dT][dY]G[dT][dP][dS][dL][dW][dA][dR][dL])”, the “decrease in tumor weight” value with A549 cell xenografts is given as “up to 80%”. For the same compound, in the data set on A549 cell xenografts (after 28 days), the “increase of tumor volume” value is reported as “about 4 fold”.
In general, IC50 refers to the concentration that inhibits the measured activity by half. The low end stands for greater potency in that assay, the high end for weaker potency in that assay. With `CC(C)C[C@H](NC(=O)[C@H](C)N)C(=O)N[C@@H](CC(C)C)C(=O)N[C@H](C(=O)N[C@@H](CO)C(=O)NCC(=O)N[C@H](C(=O)N[C@@H](CO)C(=O)N[C@@H](CC(=O)O)C(=O)N1CCC[C@H]1C(=O)N[C@@H](CCCNC(=N)N)C(=O)N[C@@H](C)C(=O)N[C@@H](CCCNC(=N)N)C(=O)N[C@H](C(=O)N[C@H](C(=O)N[C@@H](Cc1ccc(O)cc1)C(=O)NCC(=O)N[C@H](C(=O)N1CCC[C@H]1C(=O)N[C@@H](CO)C(=O)N[C@@H](CC(C)C)C(=O)N[C@@H](Cc1c[nH]c2ccccc12)C(=O)N[C@@H](C)C(=O)N[C@@H](CCCNC(=N)N)C(=O)N[C@@H](CC(C)C)C(=O)N[C@@H](CCCNC(=N)N)C(=O)N[C@H](CCCNC(=N)N)C(=O)N[C@@H](CCCNC(=N)N)C(=O)N[C@@H](CCCCN)C(=O)O)[C@@H](C)O)[C@@H](C)O)C(C)C)[C@@H](C)O)[C@@H](C)O` [1C11-R-{D-Arg}-RK] (H-ALLTSGTSDPRARVTYGTPSLWARLR[dR]RK-OH; N-terminus and C-terminus assumed), in the data set on A549 lung cancer cell, the IC50 is 30 ± 3.8 µM.
Same read-out and setting: next, `CC[C@H](C)[C@H](NC(=O)[C@@H]1CCCN1C(=O)[C@H](CO)NC(=O)[C@H](CO)NC(=O)[C@@H](NC(=O)[C@H](CO)NC(=O)[C@H](CC(C)C)NC(=O)[C@H](C)N)[C@@H](C)O)C(=O)N1CCC[C@H]1C(=O)N[C@@H](CO)C(=O)N[C@H](C(=O)N1CCC[C@H]1C(=O)N[C@@H](CCC(N)=O)C(=O)N[C@@H](CO)C(=O)N[C@@H](CCC(N)=O)C(=O)N[C@@H](C)C(=O)N[C@@H](CCC(N)=O)C(=O)N1CCC[C@H]1C(=O)N[C@@H](CCC(N)=O)C(=O)N[C@H](C(=O)NCC(=O)N[C@@H](CO)C(=O)NCC(=O)N[C@@H](C)C(=O)N[C@@H](CO)C(=O)N[C@H](CCCNC(=N)N)C(=O)N[C@@H](Cc1c(C)cc(O)cc1C)C(=O)N[C@@H](CCCN)C(=O)N[C@@H](Cc1ccccc1)C(N)=O)[C@@H](C)O)C(C)C` [2F3-D-Arg-Dmt-Orn-Phe] (H-ALSTSSPIPSVPQSQAQPQTGSGAS[dR][Dmt][Orn]F-NH2; N-terminus and C-terminus assumed): 19.6 ± 0.4 µM; `CC[C@H](C)[C@H](NC(=O)[C@@H](NC(=O)[C@H](CC(N)=O)NC(=O)[C@H](C)NC(=O)[C@H](CCCCN)NC(=O)[C@H](CC(C)C)NC(=O)[C@H](CC(C)C)NC(=O)[C@H](CC(N)=O)NC(=O)[C@H](CC(=O)O)NC(=O)[C@H](CC(C)C)NC(=O)[C@@H](NC(=O)[C@@H]1CCCN1C(=O)[C@H](CC(C)C)NC(=O)[C@@H](NC(=O)[C@H](CS)NC(=O)[C@@H](NC(=O)[C@H](CC(C)C)NC(=O)[C@H](CCC(N)=O)NC(=O)[C@H](CCC(N)=O)NC(=O)[C@H](Cc1ccccc1)NC(=O)[C@H](CCCCN)NC(=O)[C@H](CCCNC(=N)N)NC(=O)[C@@H](CCCNC(=N)N)NC(=O)[C@@H](N)CCCNC(=N)N)[C@@H](C)O)C(C)C)[C@@H](C)CC)C(C)C)C(=O)N[C@@H](CC(N)=O)C(=O)N[C@@H](CCCCN)C(=O)N[C@@H](CCC(N)=O)C(=O)N[C@@H](CCC(=O)O)C(=O)N[C@@H](Cc1c[nH]cn1)C(=O)O` [R-{D-Arg}-RK-1E14] (H-R[dR]RKFQQLTCVLPILDNLLKANVINKQEH-OH; N-terminus and C-terminus assumed): greater than 100 µM.
In the data set on A549 lung cancer cell, `Cc1cc(O)cc(C)c1C[C@H](NC(=O)[C@@H](CCCNC(=N)N)NC(=O)[C@H](CC(C)C)NC(=O)[C@H](CCCNC(=N)N)NC(=O)[C@H](C)NC(=O)[C@H](Cc1c[nH]c2ccccc12)NC(=O)[C@H](CC(C)C)NC(=O)[C@H](CO)NC(=O)[C@@H]1CCCN1C(=O)[C@@H](NC(=O)CNC(=O)[C@H](Cc1ccc(O)cc1)NC(=O)[C@@H](NC(=O)[C@@H](NC(=O)[C@H](CCCNC(=N)N)NC(=O)[C@H](C)NC(=O)[C@H](CCCNC(=N)N)NC(=O)[C@@H]1CCCN1C(=O)[C@H](CC(=O)O)NC(=O)[C@H](CO)NC(=O)[C@@H](NC(=O)CNC(=O)[C@H](CO)NC(=O)[C@@H](NC(=O)[C@H](CC(C)C)NC(=O)[C@H](CC(C)C)NC(=O)[C@H](C)N)[C@@H](C)O)[C@@H](C)O)C(C)C)[C@@H](C)O)[C@@H](C)O)C(=O)N[C@@H](CCCN)C(=O)N[C@@H](Cc1ccccc1)C(N)=O` [1C11-D-Arg-Dmt-Orn-Phe] (H-ALLTSGTSDPRARVTYGTPSLWARL[dR][Dmt][Orn]F-NH2; N-terminus and C-terminus assumed) came in with an IC50 of 30.3 ± 5.5 µM.
